We go through 9 compounds from US20250230153A1, “2,3-DIHYDROBENZO[B][1,4]DIOXIN-6-YL CONTAINING COMPOUNDS USEFUL AS IMMUNOMODULATORS” (BRISTOL-MYERS SQUIBB COMPANY, priority 2021, published 2025).

The structures appear in SMILES notation. Counter-ions that a name gives are not always drawn.

PD-1/PD-L1, sequence (Q9NZQ7 18-239): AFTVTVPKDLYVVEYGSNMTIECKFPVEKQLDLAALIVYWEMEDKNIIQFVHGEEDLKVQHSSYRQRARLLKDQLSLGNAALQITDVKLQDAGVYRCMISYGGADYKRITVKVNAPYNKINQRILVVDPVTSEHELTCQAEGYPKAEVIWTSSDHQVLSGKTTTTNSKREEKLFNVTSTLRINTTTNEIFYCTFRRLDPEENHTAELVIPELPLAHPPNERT

This experiment has as its target PD-1/PD-L1 (Homo sapiens (Human), UniProt Q9NZQ7). Kind of experiment: PD-1/PD-L1 Homogenous Time-Resolved Fluorescence (HTRF) binding assay. Particulars: PD-1-Ig (20 nM final)/PD-L1-His (10 nM final) binding assay. The source says: The ability of the compounds of the invention to bind to PD-L1 was investigated using a PD-1/PD-L1 Homogenous Time-Resolved Fluorescence (HTRF) binding assay.
The interaction of PD-1 and PD-L1 can be assessed using soluble, purified preparations of the extracellular domains of the two proteins. The PD-1 and PD-L1 protein extracellular domains were expressed as fusion proteins with detection tags, for PD-1, the tag was the Fc portion of Immunoglobulin (PD-1-Ig) and for PD-L1 it was the 6 histidine motif (PD-L1-His). All binding studies were performed in an HTRF assay buffer consisting of dPBS supplemented with 0.1% […] bovine serum albumin and 0.05% (v/v) Tween-20. For the h/PD-L1-His binding assay, inhibitors were pre-incubated with PD-L1-His (10 nM final) for 15m in 4 μl of assay buffer, followed by addition of PD-1-Ig (20 nM final) in 1 μl of assay buffer and further incubation for 15 m. HTRF detection was achieved using europium crypate-labeled anti-Ig (1 nM final) and allophycocyanin (APC) labeled anti-His (20 nM final). Antibodies were diluted in HTRF detection buffer and 5 μl was dispensed on top of the binding reaction. The reaction mixture was allowed to equilibrate for 30 minutes and the resulting signal (665 nm/620 nm ratio) was obtained using an EnVision fluorometer. Additional binding assays were established between the human proteins PD-1-Ig/PD-L2-His (20 & 5 nM, respectively) and CD80-His/PD-L1-Ig (100 & 10 nM, respectively).
Recombinant Proteins: Human PD-1 (25-167) with a C-terminal human Fc domain of immunoglobulin G (Ig) epitope tag [hPD-1 (25-167)-3S-IG] and human PD-L1 (18-239) with a C-terminal His epitope tag [hPD-L1(18-239)-TVMV-His] were expressed in HEK293T cells and purified sequentially by ProteinA affinity chromatography and size exclusion chromatography. Human PD-L2-His and CD80-His was obtained through commercial sources.
Homogenous Time-Resolved Fluorescence (HTRF) Assays of Binding of Soluble PD-1 to Soluble PD-L1. Soluble PD-1 and soluble PD-L1 refers to proteins with carboxyl-end truncations that remove the transmembrane-spanning regions and are fused to heterologous sequences, specifically the Fc portion of the human immunoglobuling G sequence (Ig) or the hexahistidine epitope tag (His). All binding studies were performed in an HTRF assay buffer consisting of dPBS supplemented with 0.1% (w/v) bovine serum albumin and 0.05% (v/v) Tween-20. For the PD-1-Ig/PD-L1-His binding assay, inhibitors were pre-incubated with PD-L1-His (10 nM final) for 15m in 4 μl of assay buffer, followed by addition of PD-1-Ig (20 nM final) in 1 μl of assay buffer and further incubation for 15 m. PD-L1 fusion proteins from either human, cynomologous macaques, mouse, or other species were used. HTRF detection was achieved using europium crypate-labeled anti-Ig monoclonal antibody (1 nM final) and allophycocyanin (APC) labeled anti-His monoclonal antibody (20 nM final). Antibodies were diluted in HTRF detection buffer and 5 μl was dispensed on top of binding reaction. The reaction was allowed to equilibrate for 30 minutes and signal (665 nm/620 nm ratio) was obtained using an EnVision fluorometer. Additional binding assays were established between PD-1-Ig/PD-L2-His (20 and 5 nM, respectively), CD80-His/PD-L1-Ig (100 and 10 nM, respectively) and CD80-His/CTLA4-Ig (10 and 5 nM, respectively).
Recombinant Proteins. Carboxyl-truncated human PD-1 (amino acids 25-167) with a C-terminal human Ig epitope tag [hPD-1 (25-167)-3S-IG] and human PD-L1 (amino acids 18-239) with a C-terminal His epitope tag [hPD-L1(19-239)-tobacco vein mottling virus protease cleavage site (TVMV)-His] were expressed in HEK293T cells and purified sequentially by recombinant Protein A affinity chromatography and size exclusion chromatography. Human PD-L2-His (Sino Biologicals), CD80-His (Sino Biologicals), CTLA4-Ig (RnD Systems) were all obtained through commercial sources.
(In general: Time-resolved FRET reads energy transfer from a long-lived donor to a nearby acceptor.)
The term IC50 denotes the midpoint of a concentration-inhibition curve. A high value points to weaker potency in that assay. Regarding `Cc1c(COc2cc(OCC3CCC3)c(CN3CCCC[C@H]3C(=O)O)cc2Cl)cccc1-c1ccc2c(c1)OCCO2` [Example 1050, (S)-1-(5-Chloro-2-(cyclobutylmethoxy)-4-((3-(2,3-dihydrobenzo[b][1,4]dioxin-6-yl)-2-methylbenzyl)oxy)benzyl)piperidine-2-carboxylic acid], the IC50 was found to be 59.8 nM.
Under `Cc1c(COc2cc(OCCN3CCOCC3)c(CNC(C)(CO)CO)cc2Cl)cccc1-c1ccc2c(c1)OCCO2` [Example 1039, 2-((5-Chloro-4-((3-(2,3-dihydrobenzo[b][1,4]dioxin-6-yl)-2-methylbenzyl)oxy)-2-(2-morpholinoethoxy)benzyl)amino)-2-methylpropane-1,3-diol] stands 2.3 nM.
The figure for `Cc1c(COc2cc(OCC3CNCCO3)c(CN3CCCC[C@H]3C(=O)O)cc2Cl)cccc1-c1ccc2c(c1)OCCO2` (stereo partly drawn) [Example 2011, (2S)-1-(5-Chloro-4-((3-(2,3-dihydrobenzo[b][1,4]dioxin-6-yl)-2-methylbenzyl)oxy)-2-(morpholin-2-ylmethoxy)benzyl)piperidine-2-carboxylic acid acetic acid salt] is 26.5 nM; for `CCn1cc(COc2cc(OCc3cccc(-c4ccc5c(c4)OCCO5)c3C)c(Cl)cc2CN[C@@](C)(CO)C(=O)O)cn1` [Example 1003, (S)-2-((5-Chloro-4-((3-(2,3-dihydrobenzo[b][1,4]dioxin-6-yl)-2-methylbenzyl)oxy)-2-((1-ethyl-1H-pyrazol-4-yl)methoxy)benzyl)amino)-3-hydroxy-2-methylpropanoic acid] it is 5.8 nM.
As to `Cc1c(COc2cc(OCc3cccc(-c4nc(CC(=O)O)co4)c3)c(CN[C@@](C)(CO)C(=O)O)cc2Cl)cccc1-c1ccc2c(c1)OCCO2` [Example 1015, (S)-2-((2-((3-(4-(Carboxymethyl)oxazol-2-yl)benzyl)oxy)-5-chloro-4-((3-(2,3-dihydrobenzo[b][1,4]dioxin-6-yl)-2-methylbenzyl)oxy)benzyl)amino)-3-hydroxy-2-methylpropanoic acid], the IC50 was 68.4 nM.
`COC(=O)CCNS(=O)(=O)c1cncc(COc2cc(OCc3cccc(-c4ccc5c(c4)OCCO5)c3C)c(Cl)cc2CN[C@@](C)(CO)C(=O)O)c1` [Example 1018, (S)-2-((5-Chloro-4-((3-(2,3-dihydrobenzo[b][1,4]dioxin-6-yl)-2-methylbenzyl)oxy)-2-((5-(N-(3-methoxy-3-oxopropyl)sulfamoyl)pyridin-3-yl)methoxy)benzyl)amino)-3-hydroxy-2-methylpropanoic acid] showed a half-inhibitory concentration (IC50) of 4 nM. Compared with the last compound, the IC50 is about 17-fold lower.
The compound `Cc1c(COc2cc(OCCN3CCCCC3)c(CN[C@](C)(CO)C(=O)O)cc2Cl)cccc1-c1ccc2c(c1)OCCO2` [Example 1043, (R)-2-((5-Chloro-4-((3-(2,3-dihydrobenzo[b][1,4]dioxin-6-yl)-2-methylbenzyl)oxy)-2-(2-(piperidin-1-yl)ethoxy)benzyl)amino)-3-hydroxy-2-methylpropanoic acid] registered an IC50 of 0.4 nM.
On to `Cc1c(COc2cc(OC[C@H](C)CO)c(CNC(C)(CO)CO)cc2Cl)cccc1-c1ccc2c(c1)OCCO2` [Example 1033, (R)-2-((5-Chloro-4-((3-(2,3-dihydrobenzo[b][1,4]dioxin-6-yl)-2-methylbenzyl)oxy)-2-(3-hydroxy-2-methylpropoxy)benzyl)amino)-2-methylpropane-1,3-diol], for which the 50% inhibitory concentration (IC50) is 3.9 nM.
`Cc1c(COc2cc(OCCN3CCC(O)(C(=O)O)CC3)c(CN3CCCC[C@H]3C(=O)O)cc2Cl)cccc1-c1ccc2c(c1)OCCO2` [Example 1054, (S)-1-(2-(2-(4-Carboxy-4-hydroxypiperidin-1-yl)ethoxy)-5-chloro-4-((3-(2,3-dihydrobenzo[b]1[1,4]dioxin-6-yl)-2-methylbenzyl)oxy)benzyl)piperidine-2-carboxylic acid]: the half-inhibitory concentration (IC50) stood at 1.8 nM.
